Results published in patent US4886817A, “Imidazolidinones as brain activators” (Tanabe Seiyaku Co., Ltd., priority 1986, dated 1989).

Experiments:
[1] = Gastric juice secretion in pylorus ligated rats; type: in vivo; settings: 30 mg/kg, intraperitoneal, 5 hours after administration
Description: (§1) In addition, Compound (I) and a salt thereof may have also an inhibitory effect on gastric juice secretion and may be used for therapy and prophylaxy of peptic ulcer. […] Further, the compound of the present invention is low in toxicity and has high safety as pharmaceuticals.

[2] = KCN-induced cerebral energy metabolism disorders; type: in vivo
Description: (§2) The compound (I) of the present invention and a salt thereof are useful as a cerebral activator. More particularly, Compound (I) and a salt thereof can effectively prolong the survival time of mice suffering from KCN-induced cerebral anoxia or hypobaric hypoxia, and show potent protective action against brain ischemia. Compound (I) and a salt thereof can also improve KCN-induced cerebral energy metabolism disorders. Further, Compound (I) and a salt thereof improve scopolamine-induced amnesia, and show potent anticonvulsive, AChE (acetylchline esterase) inhibitory and GABA-mimetic or GABA-potentiative actions. […] Based on these therapeutic effects, Compound (I) and a salt thereof can be used as a cerebral metabolism activator and/or a nootropic drug.

[3] = Survival time of mice under hypobaric hypoxia (closed container, reduced pressure); type: in vivo; settings: 30 mg/kg (p.o.); pressure 165 mmHg
Description: as §2

[4] = Spontaneous locomotion in mice which received apomorphine; type: in vivo; settings: 45 mg/kg, oral; apomorphine 0.03 or 0.1 mg/kg, s.c.
Description: Compound (I) of the present invention and a salt thereof can also be used as antidepressants because it can effectively shorten the immobility time of mice during forced swimming thereof and also increase spontaneous locomotor activity.

Acute toxicity (LD50) = settings: mouse, in vivo; oral, male Std/ddY mice, estimated 7 days after administration
Description: as §1

[5] = Preventive effect on maximum electroshock-induced convulsion; type: in vivo, male Std/ddY mice; settings: 100 mg/kg, oral, 1 hour before electroshock
Description: (Preventive effect on maximum electroshock-induced convulsion)
One hour after oral administration of a test compound to male Std/ddY mice, maximum electroshock (AC 900 V, 25 mA, 0.15 second) was delivered to said mice through corneal electrodes from an electrical stimulator.

SMILES | inhibition of tonic extensive convulsion induced by maximum electroshock [5] | other results
O=C1N(C/C=C/C=C/c2ccccc2Cl)CCN1c1ccncc1 [(2E,4E)-1-[5-(2-chlorophenyl)-2,4-pentadienyl]-3-(4-pyridyl)-2-imidazolidinone] |  | decrease in gastric juice secretion [1]: ≥ 42%
O=C1N(C/C=C/c2ccccc2)CCN1c1cccnc1 [(E)-1-cinnamyl-3-(3-pyridyl)-2-imidazolidinone] |  | KCN-induced cerebral metabolism disorders [2]: improve the KCN-induced cerebral metabolism disorders; decrease in energy metabolism-relating substances (ATP, creatine-P, glucose or glycogen in the brain) induced by KCN [2]: inhibit the decrease; survival time of mice which suffered from hypobaric hypoxia [3]: significantly prolong the survival time; spontaneous locomotion in mice which received apomorphine [4]: significant increase; LD50 at 168 h (Acute toxicity (LD50)): > 1500 mg/kg
O=C1N(C/C=C/c2ccc(Cl)cc2)CCN1c1cccnc1 [compound 1, (E)-1-(4-chlorocinnamyl)-3-(3-pyridyl)-2-imidazolidinone] | completely inhibited | 
O=C1N(C/C=C/c2ccc(Cl)cc2)CCN1c1ccncc1 [compound 2, (E)-1-(4-chlorocinnamyl)-3-(4-pyridyl)-2-imidazolidinone] | completely inhibited | 
Cl.O=C1N(C/C=C/c2ccccc2)CCN1c1cccnc1 [compound 3, (E)-1-cinnamyl-3-(3-pyridyl)-2-imidazolidinone hydrochloride] | completely inhibited | decrease in gastric juice secretion [1]: ≥ 42%
O=C1N(C/C=C/c2ccccc2)CCN1c1ncccn1 [compound 4, (E)-1-cinnamyl-3-(2-pyrimidinyl)-2-imidazolidinone] | completely inhibited | 
O=C1N(C/C=C/c2cccc(Cl)c2)CCN1c1ccncc1 [compound 5, (E)-1-(3-chlorocinnamyl)-3-(4-pyridyl)-2-imidazolidinone] | completely inhibited | 
O=C1N(C/C=C/c2ccccc2Cl)CCN1c1ccncc1 [compound 6, (E)-1-(2-chlorocinnamyl)-3-(4-pyridyl)-2-imidazolidinone] | completely inhibited | 
Cc1cccc(/C=C/CN2CCN(c3ccncc3)C2=O)c1 [compound 7, (E)-1-(3-methylcinnamyl)-3-(4-pyridyl)-2-imidazolidinone] | completely inhibited | 
O=C1N(CCC/C=C/c2ccccc2)CCN1c1ccncc1 [compound 8, (E)-1-(5-phenyl-4-pentenyl)-3-(4-pyridyl)-2-imidazolidinone] | completely inhibited | 
O=C1N(C/C=C\c2ccccc2)CCN1c1ccncc1 [compound 9, (Z)-1-cinnamyl-3-(4-pyridyl)-2-imidazolidinone] | completely inhibited | 
